The values below come from patent US5763430A, “Method of treating a viral infection by administering a steroid compound” (priority 1995, dated 1998).

The structures appear in SMILES notation.

This series concerns chick chorioallantoic membrane. In words: chorioallantoic membrane (CAM) model, inhibition of capillary growth. Type of series: in vivo. As to conditions: 3-Day embryo. The text has this: The growing capillaries within the chorioallantoic membrane model (CAM model) have been used as a system in which to evaluate the effect of agents on their potential to inhibit new vessel growth. Neovascularization occurs most aggressively over the first week of embryonic development. Thereafter capillary growth is characterized by principally "elongation" rather than "de novo" formation.
In the standard assay, agents are applied locally to a region of the embryo over which neovascularization will occur. Agents are assessed by their ability to inhibit this process, as evaluated by visual examination about 7 days after application. […] The assay utilized is described in detail in Auerbach et al., Pharm. Ther. 51, 1991, 1-11.

With `CC(C)[C@@H](CC[C@@H](C)[C@H]1CC[C@H]2[C@@H]3[C@H](O)C[C@H]4C[C@@H](NCCCNCCCCN)CC[C@]4(C)[C@H]3CC[C@]12C)OS(=O)(=O)O` [Compound 1256], the Percentage positive (0.65 μg, Assay 1) amounted to 28 Percentage; the Percentage positive (1.25 μg, Assay 1) stood at 18 Percentage; the Percentage positive (1.25 μg, Assay 2) was 18 Percentage; the Percentage positive (1.25 μg, Mean) came to 18 Percentage; the Percentage positive (2.5 μg, Assay 1) worked out at 35 Percentage; the Percentage positive (2.5 μg, Assay 2) is listed as 18 Percentage. Besides, the Percentage positive by setting is: (2.5 μg, Mean) 27 Percentage; (5.0 μg, Assay 1) 91 Percentage; (5.0 μg, Assay 2) 57 Percentage; (5.0 μg, Mean) 74 Percentage; (20 μg, Assay 1, some vascular irritation) 52 Percentage; (20 μg, Assay 2, some vascular irritation) 58 Percentage. The Percentage positive is listed as 55 Percentage (20 μg, Mean); 50 Percentage (40 μg, Assay 1, some vascular irritation); 13 Percentage (40 μg, Assay 2, some vascular irritation); 32 Percentage (40 μg, Mean). Also, the vascular irritation result (20 and 40 μg) is “Some vascular irritation noted”.
